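These data come from cells grown in 96-well plates and exposed to compound for 48 hours at five concentrations. TGI denotes the concentration required for complete inhibition of growth.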
Tests used:
Test in all cases: NCI-60 cell line screen, 48 h
RXF 393 renal = test system: RXF 393 renal
KM12 colon = test system: KM12 colon
HCT-15 colon = test system: HCT-15 colon
OVCAR-3 ovarian = test system: OVCAR-3 ovarian
XF 498 CNS = test system: XF 498 CNS
SN12C renal = test system: SN12C renal
NCI-H23 lung = test system: NCI-H23 lung
M14 melanoma = test system: M14 melanoma
SNB-75 CNS = test system: SNB-75 CNS
MOLT-4 leukemia = test system: MOLT-4 leukemia
SF-268 CNS = test system: SF-268 CNS
M19-MEL melanoma = test system: M19-MEL melanoma
SK-MEL-28 melanoma = test system: SK-MEL-28 melanoma
COLO 205 colon = test system: COLO 205 colon
HCC-2998 colon = test system: HCC-2998 colon
DMS 273 small cell lung = test system: DMS 273 small cell lung
LXFL 529 NSCLC = test system: LXFL 529 NSCLC
ACHN renal = test system: ACHN renal
RXF-631 renal = test system: RXF-631 renal
K-562 leukemia = test system: K-562 leukemia
LOX IMVI melanoma = test system: LOX IMVI melanoma
SF-539 CNS = test system: SF-539 CNS
UACC-62 melanoma = test system: UACC-62 melanoma
SNB-19 CNS = test system: SNB-19 CNS
HOP-18 NSCLC = test system: HOP-18 NSCLC
OVCAR-8 ovarian = test system: OVCAR-8 ovarian
DMS 114 small cell lung = test system: DMS 114 small cell lung
UO-31 renal = test system: UO-31 renal
UACC-257 melanoma = test system: UACC-257 melanoma
HT29 colon = test system: HT29 colon
NCI-H226 lung = test system: NCI-H226 lung
OVCAR-5 ovarian = test system: OVCAR-5 ovarian
OVCAR-4 ovarian = test system: OVCAR-4 ovarian
786-0 renal = test system: 786-0 renal
HOP-62 NSCLC = test system: HOP-62 NSCLC
HOP-92 NSCLC = test system: HOP-92 NSCLC
SK-MEL-2 melanoma = test system: SK-MEL-2 melanoma
NCI-H522 lung = test system: NCI-H522 lung
U251 CNS = test system: U251 CNS
SF-295 CNS = test system: SF-295 CNS
CCRF-CEM leukemia = test system: CCRF-CEM leukemia
TK-10 renal = test system: TK-10 renal
SR leukemia = test system: SR leukemia
A498 renal = test system: A498 renal
DLD-1 colon = test system: DLD-1 colon
A549 NSCLC = test system: A549 NSCLC
MALME-3M melanoma = test system: MALME-3M melanoma
RPMI-8226 leukemia = test system: RPMI-8226 leukemia
NCI-H460 lung = test system: NCI-H460 lung
CAKI-1 renal = test system: CAKI-1 renal
HCT-116 colon = test system: HCT-116 colon
SK-MEL-5 melanoma = test system: SK-MEL-5 melanoma
IGROV1 ovarian = test system: IGROV1 ovarian
SW-620 colon = test system: SW-620 colon
EKVX NSCLC = test system: EKVX NSCLC
HL-60(TB) leukemia = test system: HL-60(TB) leukemia
SK-OV-3 ovarian = test system: SK-OV-3 ovarian
KM20L2 colon = test system: KM20L2 colon

SMILES: COc1cccc(/C=C2\CCC(CCN(C)C)(C3=CCCC3)C2=O)c1 (stereo not given)
- TGI (RXF 393 renal): 21.7 µM
- TGI (KM12 colon): 31 µM
- TGI (HCT-15 colon): 31.1 µM
- TGI (OVCAR-3 ovarian): 34 µM
- TGI (XF 498 CNS): 31.9 µM
- TGI (SN12C renal): 28.6 µM
- TGI (NCI-H23 lung): 41.4 µM
- TGI (M14 melanoma): 27.4 µM
- TGI (SNB-75 CNS): 35 µM
- TGI (MOLT-4 leukemia): 34.1 µM
- TGI (SF-268 CNS): 45.6 µM
- TGI (M19-MEL melanoma): 30 µM
- TGI (SK-MEL-28 melanoma): 31.3 µM
- TGI (COLO 205 colon): 21.3 µM
- TGI (HCC-2998 colon): 30.4 µM
- TGI (DMS 273 small cell lung): 28 µM
- TGI (LXFL 529 NSCLC): 28.9 µM
- TGI (ACHN renal): 30.5 µM
- TGI (RXF-631 renal): 43.4 µM
- TGI (K-562 leukemia): 36 µM
- TGI (LOX IMVI melanoma): 30.2 µM
- TGI (SF-539 CNS): 29.7 µM
- TGI (UACC-62 melanoma): 30 µM
- TGI (SNB-19 CNS): 31.1 µM
- TGI (HOP-18 NSCLC): 27.2 µM
- TGI (OVCAR-8 ovarian): 32.1 µM
- TGI (DMS 114 small cell lung): 31.4 µM
- TGI (UO-31 renal): 26.5 µM
- TGI (UACC-257 melanoma): 28.8 µM
- TGI (HT29 colon): 29.2 µM
- TGI (NCI-H226 lung): 31.2 µM
- TGI (OVCAR-5 ovarian): 28.1 µM
- TGI (OVCAR-4 ovarian): 30.5 µM
- TGI (786-0 renal): 27.9 µM
- TGI (HOP-62 NSCLC): 32 µM
- TGI (HOP-92 NSCLC): 28.6 µM
- TGI (SK-MEL-2 melanoma): 29.9 µM
- TGI (NCI-H522 lung): 26.9 µM
- TGI (U251 CNS): 30.6 µM
- TGI (SF-295 CNS): 31.1 µM
- TGI (CCRF-CEM leukemia): 40.8 µM
- TGI (TK-10 renal): 29.3 µM
- TGI (SR leukemia): 57.4 µM
- TGI (A498 renal): 30.8 µM
- TGI (DLD-1 colon): 36.4 µM
- TGI (A549 NSCLC): 32.6 µM
- TGI (MALME-3M melanoma): 31.2 µM
- TGI (RPMI-8226 leukemia): 41.7 µM
- TGI (NCI-H460 lung): 29.9 µM
- TGI (CAKI-1 renal): 25.2 µM
- TGI (HCT-116 colon): 27.7 µM
- TGI (SK-MEL-5 melanoma): 32.4 µM
- TGI (IGROV1 ovarian): 32.5 µM
- TGI (SW-620 colon): 27.1 µM

SMILES: N#CC(/C(CCCC(=O)Nc1cccc([N+](=O)[O-])c1)=N/NC(=O)c1cc2ccccc2cc1O)c1ccccc1 (stereo not given)
- TGI (EKVX NSCLC): > 100 µM
- TGI (RXF 393 renal): 72.3 µM
- TGI (KM12 colon): > 100 µM
- TGI (HCT-15 colon): > 100 µM
- TGI (OVCAR-3 ovarian): > 100 µM
- TGI (XF 498 CNS): 63 µM
- TGI (SN12C renal): > 100 µM
- TGI (HL-60(TB) leukemia): 48.7 µM
- TGI (NCI-H23 lung): 61.5 µM
- TGI (M14 melanoma): 39.6 µM
- TGI (SNB-75 CNS): > 100 µM
- TGI (MOLT-4 leukemia): > 100 µM
- TGI (SF-268 CNS): > 100 µM
- TGI (M19-MEL melanoma): 34.9 µM
- TGI (SK-MEL-28 melanoma): > 100 µM
- TGI (SK-OV-3 ovarian): > 100 µM
- TGI (COLO 205 colon): 46.9 µM
- TGI (HCC-2998 colon): > 100 µM
- TGI (KM20L2 colon): > 100 µM
- TGI (LXFL 529 NSCLC): > 100 µM
- TGI (ACHN renal): > 100 µM
- TGI (RXF-631 renal): > 100 µM
- TGI (K-562 leukemia): > 100 µM
- TGI (LOX IMVI melanoma): 49.4 µM
- TGI (SF-539 CNS): 72.5 µM
- TGI (UACC-62 melanoma): 45 µM
- TGI (SNB-19 CNS): > 100 µM
- TGI (HOP-18 NSCLC): > 100 µM
- TGI (OVCAR-8 ovarian): > 100 µM
- TGI (DMS 114 small cell lung): 45.5 µM
- TGI (UO-31 renal): > 100 µM
- TGI (UACC-257 melanoma): 98.5 µM
- TGI (HT29 colon): > 100 µM
- TGI (NCI-H226 lung): > 100 µM
- TGI (OVCAR-5 ovarian): > 100 µM
- TGI (OVCAR-4 ovarian): > 100 µM
- TGI (786-0 renal): 96.3 µM
- TGI (HOP-62 NSCLC): > 100 µM
- TGI (HOP-92 NSCLC): 95.9 µM
- TGI (NCI-H522 lung): 56.9 µM
- TGI (U251 CNS): > 100 µM
- TGI (SF-295 CNS): > 100 µM
- TGI (CCRF-CEM leukemia): 43.3 µM
- TGI (TK-10 renal): > 100 µM
- TGI (SR leukemia): > 100 µM
- TGI (A498 renal): 92.8 µM
- TGI (DLD-1 colon): > 100 µM
- TGI (A549 NSCLC): > 100 µM
- TGI (MALME-3M melanoma): > 100 µM
- TGI (RPMI-8226 leukemia): > 100 µM
- TGI (NCI-H460 lung): > 100 µM
- TGI (CAKI-1 renal): > 100 µM
- TGI (HCT-116 colon): > 100 µM
- TGI (SK-MEL-5 melanoma): 40.8 µM
- TGI (IGROV1 ovarian): > 100 µM
- TGI (SW-620 colon): > 100 µM
